{"source": "patent US20080276327A1", "about": "“Methods and Compositions Related to Delivery of Chemical Compounds to Invertebrate Embryos” (UNIVERSITY OF UTAH RESEARCH FOUNDATION, priority 2004, published 2008)", "system": "Drosophila embryos", "experiment": "DMSO dose-response, development and hatching of Drosophila embryos", "assay_type": "in vivo", "protocol": "Initial studies examined the toxicity of DMSO in Drosophila embryos.\nFirst it was shown that DMSO was not deleterious to normal embryonic development.\nBroad dilution series were made of DMSO in PBS. Approximately 50 eggs were placed in each well of a 96 well plate containing these solutions. They were placed at 18° C. or at 25° C. and hatched offspring were counted at the end of embryonic development (36 hours at 18° and 24 hours at 25°). […] 100% of eggs produced normal larvae at concentrations as high as 5% in PBS, pH 7.2. At 7.5% DMSO the percentage declined dramatically to approximately 50% and by 10% DMSO, the percentage hatching was only ˜10%."}
{"compound": "C[S+](C)[O-]", "note": "[DMSO]", "values": [{"measurement": "percentage hatching", "setting": "7.5% DMSO in PBS", "value": "Approximately 50%"}, {"measurement": "percentage hatching", "setting": "10% DMSO in PBS", "value": "~10", "unit": "%"}, {"measurement": "eggs that produced normal larvae", "setting": "DMSO as high as 5% in PBS, pH 7.2", "value": 100, "unit": "%"}, {"measurement": "embryos in which normal development occurs", "setting": "concentrations of DMSO as high as 5%", "value": 100, "unit": "%"}, {"measurement": "concentrations of DMSO at which embryonic development proceeds normally to eclosion", "setting": "dose-response curves", "value": "≤ 5", "unit": "% v/v"}, {"measurement": "percentages surviving at 25° compared with 18°", "setting": "solutions above 5% DMSO", "value": "always less than those kept at 18°"}]}
